Experimental data as given in PubChem BioAssay AID1259407 (Chemical Carcinogenesis Research Information System (CCRIS), 2018).
Activity calls are given as the source filed them. No rule for the calls is given here.

Test system: CCRIS mutagenicity, Ames/micronucleus/aberration tests
Assay: CCRIS mutagenicity studies
[1] = Test System: AMES SALMONELLA TYPHIMURIUM, Strain/Indicator: TA100, Metabolic Activation: NONE, Method: STANDARD PLATE
[2] = Test System: AMES SALMONELLA TYPHIMURIUM, Strain/Indicator: TA100, Metabolic Activation: RAT, LIVER, S-9, AROCLOR 1254, Method: STANDARD PLATE
[3] = Test System: AMES SALMONELLA TYPHIMURIUM, Strain/Indicator: TA102, Metabolic Activation: NONE, Method: STANDARD PLATE
[4] = Test System: AMES SALMONELLA TYPHIMURIUM, Strain/Indicator: TA98, Metabolic Activation: NONE, Method: STANDARD PLATE
[5] = Test System: AMES SALMONELLA TYPHIMURIUM, Strain/Indicator: TA98, Metabolic Activation: RAT, LIVER, S-9, AROCLOR 1254, Method: STANDARD PLATE
[6] = Test System: AMES SALMONELLA TYPHIMURIUM, Strain/Indicator: TA1537, Metabolic Activation: NONE, Method: STANDARD PLATE
[7] = Test System: AMES SALMONELLA TYPHIMURIUM, Strain/Indicator: TA1537, Metabolic Activation: RAT, LIVER, S-9, AROCLOR 1254, Method: STANDARD PLATE
[8] = Test System: CHINESE HAMSTER V-79, Strain/Indicator: V-79/6-THIOGUANINE, Metabolic Activation: NONE

CC(=O)O[C@H]1CC[C@@]2(C)C(=CC[C@H]3[C@@H]4CC[C@H]([C@H](C)CCCC(C)C)[C@@]4(C)CC[C@@H]32)C1
mutagenic call (Test System: AMES SALMONELLA TYPHIMURIUM, Strain/Indicator: TA97A, Metabolic Activation: NONE, Method: STANDARD PLATE): inactive; negative | mutagenic call (Test System: AMES SALMONELLA TYPHIMURIUM, Strain/Indicator: TA97A, Metabolic Activation: RAT, LIVER, S-9, AROCLOR 1254, Method: STANDARD PLATE): inactive; negative | mutagenic call [1]: inactive; negative | mutagenic call [2]: inactive; negative | mutagenic call [3]: inactive; negative | mutagenic call (Test System: AMES SALMONELLA TYPHIMURIUM, Strain/Indicator: TA102, Metabolic Activation: RAT, LIVER, S-9, AROCLOR 1254, Method: STANDARD PLATE): inactive; negative | mutagenic call (Test System: AMES SALMONELLA TYPHIMURIUM, Strain/Indicator: TA104, Metabolic Activation: NONE, Method: STANDARD PLATE): inactive; negative | mutagenic call (Test System: AMES SALMONELLA TYPHIMURIUM, Strain/Indicator: TA104, Metabolic Activation: RAT, LIVER, S-9, AROCLOR 1254, Method: STANDARD PLATE): inactive; negative

O=c1[nH]c(=O)n([C@H]2C[C@H](O)[C@@H](CO)O2)cc1CO
mutagenic call [4]: inactive; negative | mutagenic call [5]: inactive; negative | mutagenic call [1]: active; positive | mutagenic call [2]: active; positive | mutagenic call [3]: active; positive | mutagenic call [6]: inactive; negative | mutagenic call [7]: inactive; negative | mutagenic call [8]: active; positive | mutagenic call (Test System: CHINESE HAMSTER V-79, Strain/Indicator: V-79/OUABAIN, Metabolic Activation: NONE): inactive; negative

CC(C)=CCc1ccc(O)c2c(=O)c3c(O)c4c(cc3oc12)O[C@H]1OC=C[C@@]41O
mutagenic call [4]: active; positive | mutagenic call [5]: active; positive | mutagenic call [1]: active; positive | mutagenic call [2]: active; positive

CCCCCC/C=C\CCCCCCOC(C)=O
mutagenic call [4]: inactive; negative | mutagenic call (Test System: AMES SALMONELLA TYPHIMURIUM, Strain/Indicator: TA98, Metabolic Activation: RAT, LIVER, S-9, Method: STANDARD PLATE): inactive; negative | mutagenic call [1]: inactive; negative | mutagenic call (Test System: AMES SALMONELLA TYPHIMURIUM, Strain/Indicator: TA100, Metabolic Activation: RAT, LIVER, S-9, Method: STANDARD PLATE): inactive; negative | mutagenic call [3]: inactive; negative | mutagenic call (Test System: AMES SALMONELLA TYPHIMURIUM, Strain/Indicator: TA102, Metabolic Activation: RAT, LIVER, S-9, Method: STANDARD PLATE): inactive; negative

O=C(/C=C/c1ccc([N+](=O)[O-])cc1)c1ccccc1
mutagenic call (Test System: AMES SALMONELLA TYPHIMURIUM, Strain/Indicator: TA98, Metabolic Activation: HAMSTER, LIVER, S-9, AROCLOR 1254, Method: STANDARD PLATE): active; positive | mutagenic call [4]: inactive; negative | mutagenic call [5]: active; positive | mutagenic call (Test System: AMES SALMONELLA TYPHIMURIUM, Strain/Indicator: TA100(1,8-DNP6), Metabolic Activation: NONE, Method: PREINCUBATION): inactive; negative | mutagenic call (Test System: AMES SALMONELLA TYPHIMURIUM, Strain/Indicator: TA100(1,8-DNP6), Metabolic Activation: RAT, LIVER, S-9, AROCLOR 1254, Method: PREINCUBATION): inactive; negative | mutagenic call (Test System: AMES SALMONELLA TYPHIMURIUM, Strain/Indicator: TA100(NR), Metabolic Activation: NONE, Method: PREINCUBATION): inactive; negative | mutagenic call (Test System: AMES SALMONELLA TYPHIMURIUM, Strain/Indicator: TA100(NR), Metabolic Activation: RAT, LIVER, S-9, AROCLOR 1254, Method: PREINCUBATION): inactive; negative | mutagenic call (Test System: AMES SALMONELLA TYPHIMURIUM, Strain/Indicator: TA100, Metabolic Activation: HAMSTER, LIVER, S-9, AROCLOR 1254, Method: STANDARD PLATE): active; positive | mutagenic call (Test System: AMES SALMONELLA TYPHIMURIUM, Strain/Indicator: TA100, Metabolic Activation: NONE, Method: PREINCUBATION): inactive; negative | mutagenic call [1]: inactive; negative | mutagenic call [2]: active; positive | mutagenic call (Test System: AMES SALMONELLA TYPHIMURIUM, Strain/Indicator: TA100, Metabolic Activation: RAT, LIVER, S-9, AROCLOR, Method: PREINCUBATION): active; positive | mutagenic call (Test System: MOUSE LYMPHOMA, Strain/Indicator: L5178Y (TK+/TK-), Metabolic Activation: NONE, Method: SUSPENSION/PLATE): inactive; negative. reevaluation of results: negative | mutagenic call (Test System: MOUSE LYMPHOMA, Strain/Indicator: L5178Y (TK+/TK-), Metabolic Activation: RAT, LIVER, S-9, AROCLOR 1254, Method: SUSPENSION/PLATE): inactive; negative. reevaluation of results: negative

CCC(O)CN(CC(O)CC)N=O (centres undefined)
mutagenic call (Test System: CHINESE HAMSTER V-79, Strain/Indicator: V-79/OUABAIN, Metabolic Activation: HAMSTER, HEPATOCYTES, Method: CELL-MEDIATED): inactive; negative

CC(=O)ON(OCc1ccc([N+](=O)[O-])cc1)C(=O)c1ccccc1
mutagenic call [1]: active; positive | mutagenic call (Test System: AMES SALMONELLA TYPHIMURIUM, Strain/Indicator: TA100, Metabolic Activation: RAT, S-9, AROCLOR, Method: STANDARD PLATE): active; positive

CCN(CCC#N)c1ccc(N=Nc2c(Cl)cc([N+](=O)[O-])cc2Cl)cc1
mutagenic call [4]: active; positive | mutagenic call [5]: active; positive | mutagenic call (Test System: AMES SALMONELLA TYPHIMURIUM, Strain/Indicator: YG1041, Metabolic Activation: NONE, Method: STANDARD PLATE): active; positive | mutagenic call (Test System: AMES SALMONELLA TYPHIMURIUM, Strain/Indicator: YG1041, Metabolic Activation: RAT, LIVER, S-9, AROCLOR 1254, Method: STANDARD PLATE): active; positive

ONc1cccc(-c2ccccc2)c1
mutagenic call [4]: inactive; negative | mutagenic call [1]: inactive; negative

CCC(=O)N(c1ccc(Cl)c(Cl)c1)[C@@H]1CCC[C@H]1N(C)C
mutagenic call [4]: inactive; negative | mutagenic call [5]: inactive; negative | mutagenic call [1]: inactive; negative | mutagenic call [2]: inactive; negative | mutagenic call (Test System: AMES SALMONELLA TYPHIMURIUM, Strain/Indicator: TA1535, Metabolic Activation: NONE, Method: STANDARD PLATE): inactive; negative | mutagenic call (Test System: AMES SALMONELLA TYPHIMURIUM, Strain/Indicator: TA1535, Metabolic Activation: RAT, LIVER, S-9, AROCLOR 1254, Method: STANDARD PLATE): inactive; negative | mutagenic call [6]: inactive; negative | mutagenic call [7]: inactive; negative | mutagenic call (Test System: AMES SALMONELLA TYPHIMURIUM, Strain/Indicator: TA1538, Metabolic Activation: NONE, Method: STANDARD PLATE): inactive; negative | mutagenic call (Test System: AMES SALMONELLA TYPHIMURIUM, Strain/Indicator: TA1538, Metabolic Activation: RAT, LIVER, S-9, AROCLOR 1254, Method: STANDARD PLATE): inactive; negative | mutagenic call (Test System: CHINESE HAMSTER OVARY, Strain/Indicator: CHO-K1-BH4 (HGPRT), Metabolic Activation: NONE): inactive; negative | mutagenic call [8]: inactive; negative | mutagenic call (Test System: CHINESE HAMSTER V-79, Strain/Indicator: V-79/6-THIOGUANINE, Metabolic Activation: RAT, LIVER, S-9, AROCLOR 1254): inactive; negative | mutagenic call (Test System: UDS RODENT HEPATOCYTES, Strain/Indicator: THY INCORP, Metabolic Activation: NONE): inactive; negative
